Laboratory results taken from patent publication US8440652B2, “MST1 kinase inhibitors and methods of their use” (Lexicon Pharmaceuticals, Inc., priority 2011, dated 2013).
Read-outs that look alike come from different tables or passages of the source.

Target: T1, MST1 (Homo sapiens, UniProt Q13043)
T1 sequence (Q13043 1-487): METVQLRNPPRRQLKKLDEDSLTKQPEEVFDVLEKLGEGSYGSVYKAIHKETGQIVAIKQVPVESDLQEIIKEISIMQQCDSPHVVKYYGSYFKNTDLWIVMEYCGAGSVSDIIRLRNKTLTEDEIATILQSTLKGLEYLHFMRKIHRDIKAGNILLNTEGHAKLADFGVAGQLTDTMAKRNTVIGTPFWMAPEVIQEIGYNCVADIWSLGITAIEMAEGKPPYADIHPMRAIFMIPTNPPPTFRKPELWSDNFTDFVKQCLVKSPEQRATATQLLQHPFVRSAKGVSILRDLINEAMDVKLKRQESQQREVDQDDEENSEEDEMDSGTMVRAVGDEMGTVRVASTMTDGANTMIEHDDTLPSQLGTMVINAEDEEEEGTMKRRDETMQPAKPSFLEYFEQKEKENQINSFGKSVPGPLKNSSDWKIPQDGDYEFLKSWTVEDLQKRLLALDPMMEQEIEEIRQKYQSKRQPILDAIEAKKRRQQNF
Assay: In vitro measurement of MST1 inhibition (Z′-Lyte kinase assay)
Type: biochemical
Description: Assays were performed in low-volume 384-well black proxiplates (Perkin Elmer, PE-Blk-Proxi-6008269). Eight compounds were first diluted into LDV (Echo) plates using a Multiprobe, at a starting concentration of 1 mM compound in 100% DMSO. Using the ECHO, 75 nl compound was pinged into 384-well proxiplates. The starting concentration of compound in each assay plate is 7.5 uM, followed by 3-fold dilutions, to give quadruplicate ten-point concentration curves. A 3× solution of MST1 enzyme in kinase buffer (Invitrogen, PR4940C) was added to wells containing compound or DMSO controls, followed by a 10 minute preincubation step. Reactions were initiated by adding 5 μL of a mixture of ATP and Z′-Lyte S/T Pep 7 (Invitrogen, PV3180) and proceeded at RT for 1 hour. […] At the end of the kinase reaction, 10 ul of developing solution (Invitrogen, catalog #PR4876B; development buffer A diluted […] in development buffer B) was added to each well and incubated at RT for 1 hr. All wells were read on a Tecan at 400 nm excitation and 460 nm/530 nm emission. Plus and minus enzyme controls were used to calculate percent inhibition and IC50 curves were generated using Excel.

[1] = 1 μM ATP, read-out: IC50 (μM) 1 μM ATP
[2] = 50 μM ATP, read-out: IC50 (μM) 50 μM ATP

**Q.** For CN(C1CC1)S(=O)(=O)c1ccc(-c2cnc(N)c(-c3ccc4c(c3)OC[C@@H](COCc3ccccc3)NC4=O)c2)cc1 [(R)-4-(6-amino-5-(3-((benzyloxy)methyl)-5-oxo-2,3,4,5-tetrahydrobenzo[f][1,4]oxazepin-8-yl)pyridin-3-yl)-N-cyclopropyl-N-methylbenzenesulfonamide], which IC50 [1] is on record?
**A.** < 0.15 µM

**Q.** What about the IC50 [2] of the same compound?
**A.** < 0.01 µM

**Q.** Which IC50 [1] does the source give for CN(C1CC1)S(=O)(=O)c1ccc(-c2cnc(N)c(-c3ccc4c(c3)CCN(CCC#N)C4=O)c2)cc1 [4-(6-amino-5-(2-(2-cyanoethyl)-1-oxo-1,2,3,4-tetrahydroisoquinolin-6-yl)pyridin-3-yl)-N-cyclopropyl-N-methylbenzenesulfonamide] here?
**A.** < 0.15 µM

**Q.** And the IC50 [2]?
**A.** < 0.05 µM

**Q.** With N#CCOc1ccc(-c2cnc(N)c(-c3ccc4c(c3)CCNC4=O)n2)cc1 [2-(4-(5-amino-6-(1-oxo-1,2,3,4-tetrahydroisoquinolin-6-yl)pyrazin-2-yl)phenoxy)acetonitrile] as the compound, how does the IC50 [1] read?
**A.** < 0.15 µM

**Q.** What about the IC50 [2] of the same compound?
**A.** < 0.05 µM

**Q.** How did the IC50 [1] turn out when CNC1(c2ccc(-c3cnc(N)c(-c4ccc5c(c4)CCNC5=O)n3)cc2)CC1 [6-(3-amino-6-(4-(1-(methylamino)cyclopropyl)phenyl)pyrazin-2-yl)-3,4-dihydroisoquinolin-1(2H)-one] was run?
**A.** < 0.01 µM

**Q.** And the IC50 [2]?
**A.** < 0.01 µM

**Q.** With CN1CCc2cc(-c3nc(-c4ccc(S(=O)(=O)N(C)C5CC5)cc4)cnc3N)ccc2C1=O [4-(5-amino-6-(2-methyl-1-oxo-1,2,3,4-tetrahydroisoquinolin-6-yl)pyrazin-2-yl)-N-cyclopropyl-N-methylbenzenesulfonamide] as the compound, how does the IC50 [1] read?
**A.** < 0.15 µM

**Q.** What about the IC50 [2] of the same compound?
**A.** < 0.05 µM

**Q.** How did the IC50 [2] turn out when CCCC(C)NC(=O)c1nc(-c2cc(OC)c(OC)c(OC)c2)cnc1N (centres unmarked) [3-amino-N-(pentan-2-yl)-6-(3,4,5-trimethoxyphenyl)pyrazine-2-carboxamide] was run?
**A.** < 0.15 µM

**Q.** NC(=O)c1ccc(-c2cc(-c3ccc(S(=O)(=O)NC4CC4)cc3Cl)cnc2N)cc1 [4-(2-amino-5-(2-chloro-4-(N-cyclopropylsulfamoyl)phenyl)pyridin-3-yl)benzamide] was tested. Which IC50 [2] did it give?
**A.** < 0.15 µM

**Q.** Nc1ncc(-c2ccc(S(=O)(=O)N(CC(F)(F)F)C3CCC3)cc2)cc1-c1ccc2c(c1)CCNC2=O [4-(6-amino-5-(1-oxo-1,2,3,4-tetrahydroisoquinolin-6-yl)pyridin-3-yl)-N-cyclobutyl-N-(2,2,2-trifluoroethyl)benzenesulfonamide] was tested. Which IC50 [1] did it give?
**A.** < 0.05 µM

**Q.** And the IC50 [2]?
**A.** < 0.01 µM

**Q.** What does the source list for CCN(C)S(=O)(=O)c1ccc(-c2cnc(N)c(-c3ccc4c(c3)CCCNC4=O)n2)cc1 [4-(5-amino-6-(1-oxo-2,3,4,5-tetrahydro-1H-benzo[c]azepin-7-yl)pyrazin-2-yl)-N-ethyl-N-methylbenzenesulfonamide]?
**A.** IC50 [1]: < 0.05 µM; IC50 [2]: < 0.01 µM

**Q.** Which results are given for Cn1cc(-c2cnc(N)c(-c3ccc4c(c3)CCNC4=O)n2)cn1 [6-(3-amino-6-(1-methyl-1H-pyrazol-4-yl)pyrazin-2-yl)-3,4-dihydroisoquinolin-1(2H)-one]?
**A.** IC50 [1]: < 0.15 µM; IC50 [2]: < 0.05 µM

**Q.** Which results are given for Nc1ncc(-c2ccc(S(F)(F)(F)(F)F)cc2)nc1-c1ccc2c(c1)CCNC2=O [6-(3-amino-6-(4-(pentafluorosulfanyl)phenyl)pyrazin-2-yl)-3,4-dihydroisoquinolin-1(2H)-one]?
**A.** IC50 [1]: < 0.15 µM; IC50 [2]: < 0.05 µM

**Q.** How did the IC50 [1] turn out when Nc1ncc(-c2ccc(F)cc2)nc1-c1cc2c(cn1)C(=O)NCC2 [6-(3-amino-6-(4-fluorophenyl)pyrazin-2-yl)-3,4-dihydro-2,7-naphthyridin-1(2H)-one] was run?
**A.** < 0.01 µM

**Q.** What about the IC50 [2] of the same compound?
**A.** < 0.01 µM

**Q.** How did the IC50 [1] turn out when CCN(C)S(=O)(=O)c1ccc(-c2cnc(N)c(-c3ccc4c(c3)CCNC4=O)c2)s1 [5-(6-amino-5-(1-oxo-1,2,3,4-tetrahydroisoquinolin-6-yl)pyridin-3-yl)-N-ethyl-N-methylthiophene-2-sulfonamide] was run?
**A.** < 0.05 µM

**Q.** And the IC50 [2]?
**A.** < 0.01 µM

**Q.** For Nc1ncc(-c2ccc(F)cc2)cc1-c1cc2c(cn1)C(=O)NCC2 [6-(2-amino-5-(4-fluorophenyl)pyridin-3-yl)-3,4-dihydro-2,7-naphthyridin-1(2H)-one], which IC50 [1] is on record?
**A.** < 0.05 µM

**Q.** What about the IC50 [2] of the same compound?
**A.** < 0.05 µM

**Q.** What does the source list for CC(C)(O)c1ccc(-c2cnc(N)c(-c3ccc4c(c3)CCNC4=O)n2)cc1 [6-(3-amino-6-(4-(2-hydroxypropan-2-yl)phenyl)pyrazin-2-yl)-3,4-dihydroisoquinolin-1(2H)-one]?
**A.** IC50 [1]: < 0.05 µM; IC50 [2]: < 0.01 µM

**Q.** Which results are given for Nc1ncc(-c2ccc(S(=O)(=O)CC3CC3)cc2)nc1-c1ccc2c(c1)CCNC2=O [6-(3-amino-6-(4-((cyclopropylmethyl)sulfonyl)phenyl)pyrazin-2-yl)-3,4-dihydroisoquinolin-1(2H)-one]?
**A.** IC50 [1]: < 0.05 µM; IC50 [2]: < 0.01 µM

**Q.** N#CCc1ccc(-c2cnc(N)c(-c3ccc4c(c3)CCNC4=O)n2)s1 [2-(5-(5-amino-6-(1-oxo-1,2,3,4-tetrahydroisoquinolin-6-yl)pyrazin-2-yl)thiophen-2-yl)acetonitrile] was tested. Which IC50 [1] did it give?
**A.** < 0.05 µM

**Q.** What about the IC50 [2] of the same compound?
**A.** < 0.01 µM

**Q.** For COC[C@H]1C[C@@H]1N(C)S(=O)(=O)c1ccc(-c2cnc(N)c(-c3ccc4c(c3)CCNC4=O)n2)nc1 [6-(5-amino-6-(1-oxo-1,2,3,4-tetrahydroisoquinolin-6-yl)pyrazin-2-yl)-N-((1S,2S)-2-(methoxymethyl)cyclopropyl)-N-methylpyridine-3-sulfonamide], which IC50 [1] is on record?
**A.** < 0.15 µM

**Q.** What about the IC50 [2] of the same compound?
**A.** < 0.05 µM

**Q.** Which IC50 [1] does the source give for CC(=O)N1CC(C)(C)c2cc(-c3nc(-c4ccc(S(=O)(=O)N(C)C5CC5)cc4)cnc3N)ccc21 [4-(6-(1-acetyl-3,3-dimethylindolin-5-yl)-5-aminopyrazin-2-yl)-N-cyclopropyl-N-methylbenzenesulfonamide] here?
**A.** < 0.05 µM

**Q.** What about the IC50 [2] of the same compound?
**A.** < 0.01 µM

**Q.** Which results are given for CN(C1CC1)S(=O)(=O)c1ccc(-c2cnc(N)c(-c3ccc4c(c3)C(C)(C)NC4=O)c2)cc1 [4-(6-amino-5-(3,3-dimethyl-1-oxoisoindolin-5-yl)pyridin-3-yl)-N-cyclopropyl-N-methylbenzenesulfonamide]?
**A.** IC50 [1]: < 0.01 µM; IC50 [2]: < 0.01 µM

**Q.** Which results are given for CC(C)(C)OC(=O)N1CC=C(c2cnc(N)c(-c3ccc4c(c3)CCNC4=O)c2)CC1 [tert-butyl 6-amino-5-(1-oxo-1,2,3,4-tetrahydroisoquinolin-6-yl)-5′,6′-dihydro-[3,4′-bipyridine]-1′(2′H)-carboxylate]?
**A.** IC50 [1]: < 0.15 µM; IC50 [2]: < 0.05 µM

**Q.** Which IC50 [1] does the source give for Nc1ncc(-c2ccc3c(c2)CNS3(=O)=O)cc1-c1ccc2c(c1)CCNC2=O [6-(2-amino-5-(1,1-dioxido-2,3-dihydrobenzo[d]isothiazol-5-yl)pyridin-3-yl)-3,4-dihydroisoquinolin-1(2H)-one] here?
**A.** < 0.05 µM

**Q.** What about the IC50 [2] of the same compound?
**A.** < 0.01 µM

**Q.** CN(C1CC1)S(=O)(=O)c1ccc(-c2cnc(N)c(-c3ccc4c(c3)CCCCC(=O)N4)c2)cc1 [4-(6-amino-5-(2-oxo-1,2,3,4,5,6-hexahydrobenzo[b]azocin-8-yl)pyridin-3-yl)-N-cyclopropyl-N-methylbenzenesulfonamide] was tested. Which IC50 [1] did it give?
**A.** < 0.15 µM

**Q.** What about the IC50 [2] of the same compound?
**A.** < 0.05 µM

**Q.** Which results are given for CC(C)(C#N)c1ccc(-c2cnc(N)c(-c3ccc4c(c3)CCNC4=O)c2)cn1 [2-(6′-amino-5′-(1-oxo-1,2,3,4-tetrahydroisoquinolin-6-yl)-[3,3′-bipyridin]-6-yl)-2-methylpropanenitrile]?
**A.** IC50 [1]: < 0.05 µM; IC50 [2]: < 0.05 µM

**Q.** How did the IC50 [2] turn out when CN(C)C(=O)COc1ccc(-c2cnc(N)c(-c3ccc(C(N)=O)cc3)c2)cc1 [4-(2-amino-5-(4-(2-(dimethylamino)-2-oxoethoxy)phenyl)pyridin-3-yl)benzamide] was run?
**A.** < 0.15 µM
